Legend:
[1] = Stability tests of treprostinil forms (dimer formation, room temperature stability); type: physicochemical; details: room temperature
Procedure: The anhydrous form of treprostinil (TREPROSTINIL) has been previously described, e.g., in J. Org. Chem. 2004, 69, 1890-1902. […] A larger amount of dimers can form at higher temperatures. However, dimer formation is negligible at 5° C. Therefore, anhydrous treprostinil must be refrigerated for storage and transport. In the past, treprostinil had to be refrigerated and shipped with ice packs to maintain low (2° C.-8° C.) temperatures.
The instability of anhydrous treprostinil also imposes challenges to its preparation. To obtain anhydrous treprostinil, wet compound from recrystallization was heated in a vacuum. […] Therefore, heating temperature must be carefully controlled to avoid high heat when drying treprostinil in order to remove all water, otherwise these two dimer impurities will be produced.
Data has been generated to characterize a monohydrate form of treprostinil. […] Treprostinil monohydrate can be stored and shipped with no special handling.

[2] = Accelerated stability of treprostinil monohydrate at 25, 30 and 40° C. (Lot #01M07033); type: physicochemical
Procedure: III. Accelerated Stability Data at 30 and 40° C. (Lot #01M07033).
In the present experiment, 500 mg Treprostinil monohydrate samples were stored in Nalgene 125 ml, HDPE bottles. The experimental procedure used in this experiment was the same as the described above procedure for lot D-1007-089.

CCCCC[C@H](O)CC[C@@H]1[C@H]2Cc3cccc(OCC(=O)O)c3C[C@H]2C[C@H]1O [TREPROSTINIL Lot# D-1007-089, treprostinil monohydrate]
Stability at room temperature [1]: stable at room temperature | 3AU90 ([2]; 3-Months, 25° C./60% RH): <0.05% | 750W93 ([2]; 3-Months, 25° C./60% RH): 0.07% | 751W93 ([2]; 3-Months, 25° C./60% RH): <0.05% | Impurity 1 (RRT: 0.58) ([2]; 3-Months, 25° C./60% RH): 0.05% | Total impurities ([2]; 3-Months, 25° C./60% RH): 0.4% | UT-15 Assay ([2]; 3-Months, 25° C./60% RH): 99.5% | UT-15 Ethyl Ester ([2]; 3-Months, 25° C./60% RH): 0.2% | Water, KF ([2]; 3-Months, 25° C./60% RH): 4.8% | 3AU90 ([2]; 3-Months, 30° C./65% RH): <0.05% | 750W93 ([2]; 3-Months, 30° C./65% RH): 0.07% | 751W93 ([2]; 3-Months, 30° C./65% RH): <0.05% | Impurity 1 (RRT: 0.58) ([2]; 3-Months, 30° C./65% RH): 0.05% | Total impurities ([2]; 3-Months, 30° C./65% RH): 0.4% | UT-15 Assay ([2]; 3-Months, 30° C./65% RH): 99.5% | UT-15 Ethyl Ester ([2]; 3-Months, 30° C./65% RH): 0.2% | Water, KF ([2]; 3-Months, 30° C./65% RH): 4.8% | 3AU90 ([2]; 3-Months, 40 C./75% RH): <0.05% | 750W93 ([2]; 3-Months, 40 C./75% RH): 0.08% | 751W93 ([2]; 3-Months, 40 C./75% RH): <0.05% | Impurity 1 (RRT: 0.58) ([2]; 3-Months, 40 C./75% RH): 0.05% | Total impurities ([2]; 3-Months, 40 C./75% RH): 0.4% | UT-15 Assay ([2]; 3-Months, 40 C./75% RH): 99.4% | UT-15 Ethyl Ester ([2]; 3-Months, 40 C./75% RH): 0.2% | Water, KF ([2]; 3-Months, 40 C./75% RH): 4.8% | 3AU90 ([2]; 6-Months, 25° C./60% RH): 0.06% | 750W93 ([2]; 6-Months, 25° C./60% RH): 0.07% | 751W93 ([2]; 6-Months, 25° C./60% RH): <0.05% | Total impurities ([2]; 6-Months, 25° C./60% RH): 0.4% | UT-15 Assay ([2]; 6-Months, 25° C./60% RH): 99.0% | UT-15 Ethyl Ester ([2]; 6-Months, 25° C./60% RH): 0.2% | Water, KF ([2]; 6-Months, 25° C./60% RH): 4.7% | 3AU90 ([2]; 6-Months, 30° C./65% RH): 0.06% | 750W93 ([2]; 6-Months, 30° C./65% RH): 0.07% | 751W93 ([2]; 6-Months, 30° C./65% RH): <0.05% | Total impurities ([2]; 6-Months, 30° C./65% RH): 0.4% | UT-15 Assay ([2]; 6-Months, 30° C./65% RH): 99.1% | UT-15 Ethyl Ester ([2]; 6-Months, 30° C./65% RH): 0.2% | Water, KF ([2]; 6-Months, 30° C./65% RH): 4.7% | 3AU90 ([2]; 6-Months, 40 C./75% RH): 0.07% | 750W93 ([2]; 6-Months, 40 C./75% RH): 0.09% | 751W93 ([2]; 6-Months, 40 C./75% RH): 0.05% | Total impurities ([2]; 6-Months, 40 C./75% RH): 0.4% | UT-15 Assay ([2]; 6-Months, 40 C./75% RH): 99.7% | UT-15 Ethyl Ester ([2]; 6-Months, 40 C./75% RH): 0.2% | Water, KF ([2]; 6-Months, 40 C./75% RH): 4.7% | 3AU90 ([2]; 12-Months, 25° C./60% RH): <0.05% | 750W93 ([2]; 12-Months, 25° C./60% RH): 0.08% | 751W93 ([2]; 12-Months, 25° C./60% RH): <0.05% | Impurity 1 (RRT: 0.58) ([2]; 12-Months, 25° C./60% RH): 0.06% | Total impurities ([2]; 12-Months, 25° C./60% RH): 0.4% | UT-15 Assay ([2]; 12-Months, 25° C./60% RH): 99.8% | UT-15 Ethyl Ester ([2]; 12-Months, 25° C./60% RH): 0.2% | Water, KF ([2]; 12-Months, 25° C./60% RH): 4.7% | 3AU90 ([2]; 12-Months, 40 C./75% RH): <0.05% | 750W93 ([2]; 12-Months, 40 C./75% RH): 0.09% | 751W93 ([2]; 12-Months, 40 C./75% RH): 0.05% | Impurity 1 (RRT: 0.58) ([2]; 12-Months, 40 C./75% RH): 0.05% | Total impurities ([2]; 12-Months, 40 C./75% RH): 0.4% | UT-15 Assay ([2]; 12-Months, 40 C./75% RH): 98.6% | UT-15 Ethyl Ester ([2]; 12-Months, 40 C./75% RH): 0.2% | Water, KF ([2]; 12-Months, 40 C./75% RH): 4.8% | 3AU90 ([2]; Initial): 0.1% | 750W93 ([2]; Initial): 0.08% | 751W93 ([2]; Initial): <0.05% | Total impurities ([2]; Initial): 0.4% | UT-15 Assay ([2]; Initial): 98.7% | UT-15 Ethyl Ester ([2]; Initial): 0.2% | Water, KF ([2]; Initial): 4.5%
